From patent US5364944A, “Substituted benzoylbenzene-, biphenyl- and 2-oxazole- alkanoic acid compounds” (American Home Products Corporation, priority 1993, dated 1994) come the findings set out here.

One assay deals with LTB4. As to the kind of experiment: Reverse passive Arthus pleurisy assay, inflammatory mediator release: LTB4. The assay is classed as in vivo, rat (male Lewis). The following applies: 25 mg/kg p.o., 3 hours before challenge.
Assay [1] relates to biosynthesis of LTB4 by isolated human neutrophils. Description: Inhibition of LTB4 biosynthesis by isolated human neutrophils (PMN). It is filed as cell-based. Particulars: Neutrophil, A23187 stimulated human PMN, read-out: % Inhibition of LTB4 Synthesis. The protocol:
The ability of the compounds of the invention to inhibit the biosynthesis of LTB4 by isolated human neutrophils is evaluated in the following assay, which is carried out in this manner.
A leukocyte enriched blood sample obtained from a healthy donor is procured by leukophoresis using a Haemonetics model 30+ blood processor (Biological Specialties, Inc., Lansdale, Pa.). The top "platelet-rich" layer is removed after a low speed spin (35×g, 15 min, 25° C.) of the sample. The remaining cell suspension is centrigued (400×g, 10 min, 25° C.) to sediment the remaining cells. The supernatant is discarded and the cell pellet resuspended in 120 ml HBSS (without Ca^++ /Mg++). The cell suspension is subjected to ficoll-hypaque sedimentation (Histopaque 1077, 400×g, 30 min, 25° C.). Contaminating erythrocytes are lysed by hypotonic shock (1 min). The cells are then washed once with 40 ml of HBSS and resuspended with HBS S (without Ca^++ /Mg^++) to a concentration of 2.5×10^7 cells/ml for further use. Greater than 95% purity is obtained as assessed by microscopic examination.
One ml of human PMN (2.5×10^7 cells/ml) is incubated with vehicle or drugs (10 μl) for 10 min at 30° C. After preincubation, an equal volume of HBSS (1 ml) containing 2.4 mM CaCl2, 6 μM calcium ionophore A23187 and 50 μCi[^3 H]-acetate is then incubated at 30° C. for 15 minutes. An aliquot (100 μl) of the reaction mixture is taken out and mixed with 900 μl of 15% ethanol. LTB4 is extracted by using solid phase extraction on reverse phase C18 columns to remove excess [^3 H]-acetate and PAF. The C18 column is prewashed once with 2 ml of ethanol and water. The sample aliquot is acidified with 0.1 N HCl to pH3 before applying to the column. The column is then washed with 2 ml of water followed by 2 ml of 15% ethanol and 2 ml of petroleum ether to remove excess labeled acetate. The sample is eluted with 2 ml of ethyl acetate. The collected samples are dried with nitrogen and resuspended in 0.5 ml RIA buffer. The quantity of LTB4 in the sample is obtained from RIA determination.
Data presented are the mean +/- s.d. of the values relative to control A23187 stimulated cells for each experiment assayed in triplicate. Percent inhibition when used is calculated as:
% Inhibition=100-[(×.div.Control )×100]
Dose response analysis is performed by non-linear regression analysis for curve fitting and IC50 determination.

By inhibition is commonly meant the relative decrease from the control value, in per cent.

As to `CC(C(=O)N(C)O)c1ccc(-c2ccc(OCc3csc(-c4ccccc4)n3)cc2)cc1` (stereo not drawn) [Example 21, N-Hydroxy-N,α-dimethyl-4'-[(2-phenylthiazol-4-yl)methoxy][1,1'-biphenyl]-4-acetamide], the “% Inhibition of LTB4 Synthesis” value in the assay with LTB4 was 8%. In addition, the inhibition at 2.5 µM in assay [1] was determined as 91.2%.
